This assay has as its target T1, human NK-2 receptor (Homo sapiens, UniProt P21452).
T1 construct: expressed in transfected cells; host or cells: CHO cells (membrane preparation)
T1 sequence (P21452 1-398): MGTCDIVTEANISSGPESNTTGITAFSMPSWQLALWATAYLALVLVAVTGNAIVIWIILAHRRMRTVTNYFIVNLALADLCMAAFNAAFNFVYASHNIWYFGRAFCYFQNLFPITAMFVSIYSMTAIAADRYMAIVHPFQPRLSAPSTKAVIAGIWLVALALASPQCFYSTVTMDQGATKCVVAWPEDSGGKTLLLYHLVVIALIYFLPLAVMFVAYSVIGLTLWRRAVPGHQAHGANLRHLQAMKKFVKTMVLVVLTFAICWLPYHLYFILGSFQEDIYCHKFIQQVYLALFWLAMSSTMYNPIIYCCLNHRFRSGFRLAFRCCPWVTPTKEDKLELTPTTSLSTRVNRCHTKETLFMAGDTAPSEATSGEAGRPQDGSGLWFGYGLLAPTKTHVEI
Kind of assay: Binding power of the test substances to NK-2 receptors in vitro ([3H]-SR 48968 displacement, CHO cell membranes). As to conditions: displacement of [3H]-SR 48968, 90 min incubation, average of at least three measurements, 10^-6 to 10^-10 mol/l, read-out: pKi, affinity to human NK-2 receptors (converted). The procedure: 1. Determination of the Binding Power of the Test Substances to NK-2 Receptors in vitro
The affinity of the test substances to human NK-2 receptors was measured in vitro. The ability of the test substances to displace the selective NK-2 receptor antagonist SR 48968 (=saredutant) used as reference ligand from its corresponding bond was determined.
The receptor binding studies were carried out with radioactively marked [^3H]-SR 48968 (from Amersham) as ligand. For the binding test, different samples of a membrane preparation of CHO cells (=[…]), which express the human NK-2 receptor (for preparation, see N. P. Gerard et al., Journal of Biological Chemistry 265/33 (1990) 20455-20462), were incubated for 90 minutes (=min.) with a solution of the marked ligand, with the incubation mixtures containing no test substance or additions of different concentrations of test substance. Then in each case the membrane-bound ligands in the samples were separated from free ligands by filtration. The fraction remaining in the filter was washed several times with buffer solution, before its radioactivity was measured using a liquid scintillation counter. That concentration which effects half-maximum displacement of the bound reference ligand was determined as IC50 of the respective test substance. The inhibition constant (Ki value) of the test substance was calculated from the respective IC50 value, and was stated as the negative logarithmised value thereof (pKi).
For the compounds of Examples 1 to 39, the affinity to human NK-2 receptors was determined in each case by at least three measurements of the test substances in concentration series of 10^−6 to 10^−10 mol/l. If several measurements were performed, the average thereof was listed each time.
`CN(CC(CCN1CCN(C(c2ccsc2)[C@H](O)CO)CC1)c1ccc(Cl)c(Cl)c1)C(=O)c1ccccc1` (mixture of isomers) [Example 8]: the Ki was no more than 10 nM.
In the case of `CN(CC(CCN1CCN(C(c2ccsc2)[C@@H](O)CO)CC1)c1ccc(Cl)c(Cl)c1)C(=O)c1ccccc1` (mixture of isomers) [Example 11], the Ki is no more than 10 nM.
The value for `CN(CC(CCN1CCN(C(c2ccsc2)[C@H](O)[C@@H](O)CO)CC1)c1ccc(Cl)c(Cl)c1)C(=O)c1ccccc1` (mixture of isomers) [Example 16] was no more than 10 nM; that for `CN(CC(CCN1CCN(C(c2cccs2)[C@@H](O)[C@H](O)[C@H](O)CO)CC1)c1ccc(Cl)c(Cl)c1)C(=O)c1ccccc1` (mixture of isomers) [Example 19] was no more than 10 nM.
In the case of `CN(CC(CCN1CCN(C(c2ccsc2)[C@@H](O)[C@H](O)[C@@H](O)[C@@H](O)CO)CC1)c1ccc(Cl)c(Cl)c1)C(=O)c1ccccc1` (mixture of isomers) [Example 20] it was no more than 10 nM; in that of `CN(CC(CCN1CCN(C(c2ccsc2)[C@@H](O)[C@@H](O)[C@H](O)[C@H](O)CO)CC1)c1ccc(Cl)c(Cl)c1)C(=O)c1ccccc1` (mixture of isomers) [Example 21], no more than 10 nM.
As for `CN(CC(CCN1CCN(C(c2ccsc2)[C@H](O)[C@@H](O)[C@H](O)[C@H](O)CO)CC1)c1ccc(Cl)c(Cl)c1)C(=O)c1ccccc1` (mixture of isomers) [Example 23], the Ki was no more than 10 nM.
Consider `CN(CC(CCN1CCN(C(c2cccs2)[C@H](O)[C@@H](O)[C@H](O)CO)CC1)c1ccc(Cl)c(Cl)c1)C(=O)c1ccccc1` (mixture of isomers) [Example 24], for which the Ki was no more than 10 nM.
Consider `CN(CC(CCN1CCN(C(c2ccccc2)[C@H](O)[C@@H](O)[C@H](O)CO)CC1)c1ccc(Cl)c(Cl)c1)C(=O)c1ccccc1` (mixture of isomers) [Example 25], for which the Ki is no more than 10 nM.
In the case of `CN(CC(CCN1CCN(C(c2ccsc2)[C@@H](O)[C@@H](O)[C@@H](O)CO)CC1)c1ccc(Cl)c(Cl)c1)C(=O)c1ccccc1` (mixture of isomers) [Example 27] it was no more than 10 nM.
In the case of `CN(C[C@@H](CCN1CCN(C(c2ccco2)[C@H](O)CO)CC1)c1ccc(Cl)c(Cl)c1)C(=O)c1ccccc1` (stereo partly drawn) [Example 2, N-((2S)-2-(3,4-dichlorophenyl)-4-{4[(2S)-2,3-dihydroxy-1-(2-furyl)propyl]-1-piperazinyl}-butyl)-N-methylbenzamide] it was no more than 1 nM; in that of `CN(C[C@@H](CCN1CCN(C(c2ccco2)[C@H]2COC(=O)O2)CC1)c1ccc(Cl)c(Cl)c1)C(=O)c1ccccc1` (stereo partly drawn) [Example 4, N-[((2S)-2-(3,4)-dichlorophenyl)-4-(4-{2-furyl[(4S)-2-oxo-1,3-dioxolan-4-yl]methyl}-1-piperazinyl)butyl]-N-methylbenzamide], no more than 1 nM; in that of `CN(C[C@@H](CCN1CCN(C(c2ccoc2)[C@H](O)CO)CC1)c1ccc(Cl)c(Cl)c1)C(=O)c1ccccc1` (stereo partly drawn) [Example 6, N-((2S)-2-(3,4-dichlorophenyl)-4-{4[(2S)-2,3-dihydroxy-1-(3-furyl)propyl]-1-piperazinyl}-butyl)-N-methylbenzamide], no more than 1 nM.
As to `CN(C[C@@H](CCN1CCN(C(c2ccco2)[C@H](O)[C@@H](O)[C@H](O)CO)CC1)c1ccc(Cl)c(Cl)c1)C(=O)c1ccccc1` (stereo partly drawn) [Example 10, N-((2S)-2-(3,4-dichlorophenyl)-4-{4[(2S,3R,4R)-2,3,4,5-tetrahydroxy-1-(2-furyl)pentyl]-1-piperazinyl}-butyl)-N-methylbenzamide], the Ki was no more than 10 nM.
In the case of `CN(C[C@@H](CCN1CCN(C(c2ccsc2)[C@@H](O)[C@H](O)[C@@H](O)CO)CC1)c1ccc(Cl)c(Cl)c1)C(=O)c1ccccc1` (stereo partly drawn) [Example 12, N-((2S)-2-(3,4-dichlorophenyl)-4-{4[(2R,3S,4S)-2,3,4,5-tetrahydroxy-1-(3-thienyl)pentyl]-1-piperazinyl}butyl)-N-methylbenzamide] it was no more than 10 nM.
In the case of `CN(CC(CCN1CCN(C(c2ccsc2)C(O)CO)CC1)c1ccc(Cl)c(Cl)c1)C(=O)c1ccccc1` (stereo not shown) [Example 18] it was no more than 10 nM; in that of `CN(CC(CCN1CCN(C(c2cccs2)C(O)CO)CC1)c1ccc(Cl)c(Cl)c1)C(=O)c1ccccc1` (stereo not shown) [Example 22], no more than 10 nM; in that of `CN(CC(CCN1CCN(C(CO)c2ccsc2)CC1)c1ccc(Cl)c(Cl)c1)C(=O)c1ccccc1` (stereo not shown) [Example 26], no more than 10 nM.
On to `CN(C[C@@H](CCN1CCN(C(c2ccco2)[C@H]2COC(=S)O2)CC1)c1ccc(Cl)c(Cl)c1)C(=O)c1ccccc1` (stereo partly shown) [Example 39], for which the Ki was no more than 1 nM.
